The subject of series [1] is acute myeloid leukemia model Mv4.11. Set-up: method as in PMID 37079339. Particulars: combination with the ATR inhibitor gartisertib; cited from earlier work.
Series [2] deals with immune cell subsets and circulating immune factors. Nature of the series: Immunophenotyping by flow cytometry and circulating immune factors. It counts as in vivo, human. The method, then: Serial blood samples collected at each visit were tested for total blood cell counts and immune cell subsets (e.g., T cells, B cells, and NK cells) to evaluate immunophenotyping by flow cytometry.
(§1) Circulating immune factors (e.g., IFN-β, IFN-γ, IL-1β, IL-2, IL-4, IL-6, IL-8, IL-10, IL-12p70, IL-13, TNF-α, and NKG2DL) were assessed using immunofluorescence assays. Additionally, blood samples were tested for plasma ctDNA by next-generation sequencing at Guardant Health using the OMNI panel. This analysis was conducted to evaluate surrogate markers of tumor dynamics, sensitivity, and resistance to treatment. Molecular response (MR) was assessed and defined as strongest change of—per visit averaged—somatic variant allele frequency (VAF) against the pretreatment level as follows: Best delta mean VAF = MIN (meanVAFvisiti – meanVAFpretreatment / meanVAFpretreatment)

Series [3] concerns HBC-x9 triple-negative breast cancer model. Set-up: method as in PMID 35405736. Particulars: combined with PARP inhibitors (rucaparib or niraparib), wild-type BRCA1/2; cited from earlier work.
The test system of series [4] is human squamous cell carcinoma of the head and neck FaDu xenograft. Set-up: method as in PMID 35405736. To be noted: in combination with radiation; cited from earlier work.
The test system of series [5] is cancer cell lines (head and neck, colon, lung, gastric, breast, and melanoma). Set-up: method as in PMID 35405736. Particulars: in vitro; cited from earlier work.
Series [6] concerns ctDNA somatic variant allele frequency. Nature of the series: Plasma ctDNA next-generation sequencing (Guardant Health OMNI panel), molecular response. Type of series: in vivo, human. To be noted: 21 evaluable patients. As for the experimental part:
as §1

A short description of series [7]: PK analysis of lartesertib in plasma (non-compartmental). It counts as in vivo, human. The method, then: The PK of lartesertib was characterized during dose escalation using an intensive PK sample collection schedule. Blood samples were collected at multiple timepoints during Cycle 1, including on Day 1 (pre-dose at 0 hours and post-dose at 0.5, 1, 2, 3, 4, 6, 8, and 12 hours) and Day 8 (pre-dose at 0 hours and post-dose at 1, 2, 3, 4, 6, 8, and 12 hours). PK parameters were calculated from individual plasma concentration–time data using non-compartmental methods.

“Also recorded” adds a separate entry of the source.

Take `COc1cc2ncc3c(c2cc1-c1cn(C)nc1C)n(-c1c(F)cncc1OC)c(=O)n3C` [lartesertib]: in series [1], the Tumor growth entry is given as “almost complete tumor regression”. Also, the NK cell subsets entry in series [2] (across all DLs) is recorded as “negative trend”. The “Cytokine modulation (IFN-γ, IL-10, IL-6, IL-8, and TNF-α)” value in series [2] (among different DLs) is listed as “No relevant trends”. In series [2] (tested DLs, incl. myeloid-derived suppressor cells, T and B lymphocytes), the “Levels of most explored immune cell subsets” value is “did not cause any significant change”. Further, the Efficacy and tolerability entry in series [3] is “enhanced efficacy and acceptable tolerability”. Besides, in series [4], the Antitumor response entry was “significant dose-dependent antitumor responses”. Also, the “Radiotherapy sensitivity of cancer cell lines” value in series [5] is recorded as “enhances the radiotherapy sensitivity”. For the same compound, the “Patients with molecular response (ctDNA VAF decrease of ≥50% from baseline)” value in series [6] is reported as “four patients of 21 evaluable patients”. Also, the Exposure versus dose entry in series [7] (100-400 mg once daily) is on record as “increased in a dose-related manner; also recorded: increased in a dose-dependent manner”. For the same compound, the half-life in series [7] (human, plasma, oral, across 100-400 mg once daily, Day 1 and Day 8, read-out: Geometric mean elimination half-life (t1/2)) was 5 to 7 h. The Tmax in series [7] (human, plasma, oral, across 100-400 mg once daily, Day 1 and Day 8, read-out: Median time to reach maximum observed plasma concentration (tmax)) was in the range of 1 to 2 h.
